According to patent US20140024700A1, “BLOOD-BORNE MIRNAS AS SURROGATE MARKERS OF DRUG EFFICACY FOR CARDIAC CONDITIONS” (miRagen Therapeutics, Inc., priority 2010, published 2014):
Entries after “also recorded” stand apart in the source; their conditions may differ.

Key:
Dahl salt-sensitive rats = test: Dahl salt-sensitive rat model, 4% NaCl diet: body weight, echocardiography, histology (Example 1); assay type: in vivo; conditions: 4% NaCl HS diet
Method: To obtain additional insight into the basis for the protective effects seen in response to antimiR-208a, subsequent studies were done using a 4.0% NaCl diet, during which the rats received saline, 5 or 25 mg/kg of antimiR-208a, or 25 mg/kg of antimiR control every 2 weeks.
The LNA-antimiR oligonucleotides were synthesized at miRagen Therapeutics, Inc. as unconjugated and fully phosphorothiolated oligonucleotides perfectly complementary to the 5′ region of the mature miR-208a sequence. The LNA control oligonucleotide consisted of a sequence directed against a C. elegans specific miRNA. Unless otherwise indicated, in vivo delivery of the oligonucleotide chemistries was achieved by low pressure intravenous (i.v.) injections via the tail vein or subcutaneous injections of either adult male C56B16 mice or adult male Dahl Salt-sensitive rats (Harlan, Indianapolis). […] Tissue samples were collected at the indicated timepoints for molecular or histological examination. Dahl rats were maintained on 0.25 NaCl or placed on 4% or 8% NaCl diet at 8 weeks of age (Harlan, Indianapolis).

[1] = system: miR-499, miR-208b, Myh6, Myh7, Myh7b, HP1β; test: Cardiac tissue markers by real-time PCR, Northern and Western blot, 4% NaCl diet (Example 1); assay type: in vivo, rat; conditions: 4% NaCl HS diet
Excerpt: This regulation of miR-499 and miR-208b was confirmed by Northern blot analysis (FIG. 2B).
To assess the regulation of the myosin host genes, we examined Myh6, Myh7, and Myh7b mRNA levels.
For in vivo real-time PCR analysis, RNA was extracted from cardiac tissue using Trizol (Invitrogen) after which two μg RNA from each tissue sample was used to generate cDNA using Super Script II reverse transcriptase per manufacturer's specifications (Invitrogen). To detect the level of miR-208 RT-PCR was performed using the Taqman MicroRNA assay (Applied Biosystems, ABI) according the manufacturer's recommendations, using 10-100 ng of total RNA. The expression of a subset of genes was analyzed by quantitative real time PCR using Taqman probes purchased from ABI.
Total RNA was isolated from cardiac tissue samples by using Trizol reagent (Gibco/BRL). Northern blots to detect microRNAs were performed as described previously described. A U6 probe served as a loading control (IDT). 10 μg of total RNA from cardiomyocytes or heart tissue was loaded on 20% acrylamide denaturing gels and transferred to Zeta-probe GT genomic blotting membranes (Bio-Rad) by electrophoresis. After transfer, the blots were cross-linked and baked at 80° C. for 1 hr. To maximize the sensitivity of miRNA detection, oligonucleotide probes were labeled with the Starfire Oligos Kit (IDT, Coralville, Iowa) and α-^32P dATP (Amersham or Perkin Elmer). Probes were hybridized to the membranes overnight at 39° C. in Rapid-hyb buffer (Amersham), after which they were washed twice for 10 minutes at 39° C. with 0.5×SSC containing 0.1% SDS. The blots were exposed and quantified by PhosphorImager analysis (GE HealthCare Life Sciences) and a U6 probe served as a loading control (ABI). The intensity of the radioactive signal was used to quantify the fold change in expression using a phosphorimager and ImageQuant (Bio-Rad).
Western blot analysis. For Western blot analysis, Myosin was extracted from cardiac cells or tissue as described (H-amalainen, N. & Pette, D. Patterns of myosin isoforms in mammalian skeletal muscle fibres. Microsc Res Tech 30, 381-389 (1995)). MHC isoforms were detected by loading 0.1 ug protein lysate on a 4-15% gradient gel and separated by SDS PAGE and Western blotting was performed with mouse monoclonal anti-myosin (slow, skeletal M8421) (Sigma, Mo.), which is highly specific for Myh7.

miR-208a, Myh6, Myh7 = test: Cardiac tissue markers by Taqman RT-PCR, 4% NaCl diet (Example 2); assay type: in vivo, rat; conditions: 25 mg/kg sc every 2 weeks
Method: The flowing experimental groups were tested:
Following catheter implant surgery, high-salt diet was initiated. […] Animals were sacrificed 8 weeks after the initial injection.
Tissue RNA was isolated using standard Trizol RNA isolation.

[2] = system: miR-208a, miR-499, miR-208b, Myh6, Myh7b, Myh7, Dynlt1, Vcpip, Tegt; test: Cardiac tissue real-time PCR, 6% NaCl diet (Example 3); assay type: in vivo, rat
Method: One week following the initiation of the 6.0% NaCl diet, rats were dosed subcutaneously (sc) with saline or oligonucleotides (M−10101, 5′-CTTTTTGCTCGTCTTA-3′ (SEQ ID NO: 12) or M-10591, 5′-TCCTAGAAAGAGTAGA-3′ (SEQ ID NO:13)) at 25 mg/kg every 2 weeks. Captopril or water were dosed daily by oral gavage. Echocardiography was performed every 2 weeks starting one week post […] dosing. The Captopril dose for rat was selected to match the standard human dose in man.
For in vivo real-time PCR analysis, RNA was extracted from cardiac tissue using Trizol (Invitrogen) after which two μg RNA from each tissue sample was used to generate cDNA using Super Script II reverse transcriptase per manufacturer's specifications (Invitrogen). To detect the level of miR-208 RT-PCR was performed using the Taqman MicroRNA assay (Applied Biosystems, ABI) according the manufacturer's recommendations, using 10-100 ng of total RNA. The expression of a subset of genes was analyzed by quantitative real time PCR using Taqman probes purchased from AB.

[3] = 8 weeks, histological quantification, listed as antimiR-208a
[4] = 8 weeks after HS diet, vs HS/saline, listed as antimiR-208a
[5] = real-time PCR, Northern blot, listed as anti-miR-208a
[6] = real-time PCR, listed as AntimiR-208a
[7] = real-time PCR, listed as anti-miR-208a
[8] = listed as antimiR-208a, 25 mg/kg
[9] = M-10101 25 mg/kg sc, Captopril po daily

Substance: M-10101: antimiR targeting bases 2 to 17 of mature miR-208a, LNA and DNA linked by phosphorothioate bonds; 5′-CTTTTTGCTCGTCTTA-3′ (SEQ ID NO: 12) (all phosphorothioate, sugars by position and methylation of C not given here; LNA/DNA mixmer; listed as Homo sapiens)
- Cardiomyocyte hypertrophy (cardiomyocyte size) (Dahl salt-sensitive rats; [3]): significant reduction in cardiomyocyte hypertrophy; also recorded: significantly less hypertrophy
- Periarteriolar (perivascular) fibrosis, Picrosirius Red staining (Dahl salt-sensitive rats; [3]): reduced periarteriolar fibrosis; also recorded: significantly less hypertrophy and fibrosis
- Body weight gain (Dahl salt-sensitive rats; 5 or 25 mg/kg every 2 weeks, listed as antimiR-208a): maintained their increase in weight gain; also recorded: sufficient to maintain weight gain comparable to that in animals on a normal diet
- Isovolumic relaxation time (IVRT), echocardiography (Dahl salt-sensitive rats; [4]): significant dose-dependent reduction; also recorded: significantly improved
- Mitral valve early to active filling velocity ratio (MV E/A) (Dahl salt-sensitive rats; [4]): normalization; also recorded: significantly improved
- Isovolumic relaxation time, time-dependent echocardiography (Dahl salt-sensitive rats; every 2 weeks after HS diet, vs HS/saline, data not shown): significant reductions in isovolumic relaxation time
- HP1β (miR-208a target) protein, Western blot ([1]; listed as anti-miR-208a): target depression
- Myh7 protein, Western blot of ventricular tissue ([1]; listed as anti-miR-208a): dose-dependent regulation of Myh7 was confirmed
- Myh7 protein, Western blot of ventricular tissue ([1]; listed as antimiR-208a): dose-dependent reduction
- miR-208b level in cardiac tissue [1, 5]: dose-dependent decrease in miR-208b levels
- miR-499 expression in cardiac tissue [1, 5]: dose-dependent decrease in expression; also recorded: dose-dependent reduction in miR-499
- miR-208b level in cardiac tissue ([1]; real-time PCR, Northern blot, listed as antimiR-208a): significantly blunts this response
- Myh6 mRNA in cardiac tissue [1, 6]: dose-dependently increases Myh6 expression
- Myh7b mRNA in cardiac tissue [1, 6]: reduces Myh7b expression
- Myh7 mRNA (HS diet-induced increase) in cardiac tissue [1, 6]: dose-dependently reduced
- Myh6 mRNA in cardiac tissue [1, 7]: normalized the decreased expression
- Myh7b mRNA in cardiac tissue [1, 7]: dose-dependent reduction
- Myh7 mRNA (HS diet-induced increase) in cardiac tissue [1, 7]: dose-dependently blunted
- Myh7 expression in cardiac tissue (miR-208a, Myh6, Myh7; listed as AntimiR-208a, 25 mg/kg): blunted the hypertension-induced increase in Myh7 expression
- Myh6 expression in cardiac tissue (miR-208a, Myh6, Myh7; [8]): prevented the high-salt diet-induced decrease in Myh6 expression; also recorded: prevents this decrease
- Myh7 expression in cardiac tissue (miR-208a, Myh6, Myh7; [8]): reduces this increase
- miR-208a in cardiac tissue (miR-208a, Myh6, Myh7; vs HS/Saline): greater inhibition of miR-208a
- Expression of direct target genes of miR-208a (Dynlt1, Vcpip, Tegt) in cardiac tissue ([2]; 25 mg/kg sc): increase in expression
- miR-208a cardiac level ([2]; 25 mg/kg sc every 2 weeks): further reduced
- miR-208b cardiac level ([2]; 25 mg/kg sc every 2 weeks): reduction of cardiac levels
- miR-499 cardiac level ([2]; 25 mg/kg sc every 2 weeks): reduction of cardiac levels
- Myh7b levels in the heart [2, 9]: specifically reduced
- αMHC (Myh6) in the heart (reduced by HS diet) [2, 9]: normalized
- βMHC (Myh7) expression (increase induced by HS diet) ([2]; M-10101 25 mg/kg sc, Captopril po daily, listed as antimiR-208a): more effective; also recorded: not significantly different from animals on the LS diet
